In patent publication US10336697B2, “Spiro[cyclobutane-1,3′-indolin]-2′-one derivatives as bromodomain inhibitors” (Orion Corporation, priority 2015, dated 2019) one finds IC50 data, which are given here for 23 compounds.

This assay concerns the target Bet BRD4 full length bromo-domain protein (Homo sapiens, UniProt O60885). The experiment in a line: Bet bromodomain TR-FRET assay (displacement of acetyl histone peptide). It is filed as binding. The settings on record: Bet BRD4 full length bromodomain protein, 300 nM acetyl histone peptide substrate, read-out: IC50. (In general: Time-resolved FRET reads energy transfer from a long-lived donor to a nearby acceptor.)

As a reminder, the IC50 is the midpoint of a concentration-inhibition curve. For the compound `O=C1Nc2c(NC3CCc4cc(F)ccc43)cc(NS(=O)(=O)c3ccc(F)cc3F)cc2C12CCC2` (centres unmarked) [Compound 26, 2,4-Difluoro-N-(7′-((5-fluoro-2,3-dihydro-1H-inden-1-yl)amino)-2′-oxospiro[cyclobutane-1,3′-indolin]-5′-yl)benzenesulfonamide], the IC50 was greater than 1 µM.
On to `COc1ccccc1S(=O)(=O)Nc1cc(Oc2cc[nH]c(=O)c2)c2c(c1)C1(CCC1)C(=O)N2` [compound 213, 2-Methoxy-N-(2′-oxo-7′-((2-oxo-1,2-dihydropyridin-4-yl)oxy)spiro[cyclobutane-1,3′-indolin]-5′-yl)benzenesulfonamide], for which the IC50 is less than 0.6 µM.
For `O=C1Nc2c(OCCc3ccccn3)cc(NS(=O)(=O)c3ccc(Cl)cc3F)cc2C12CCC2` [Compound 159, 4-Chloro-2-fluoro-N-(2′-oxo-7′-(2-(pyridin-2-yl)ethoxy)spiro[cyclobutane-1,3′-indolin]-5′-yl)benzenesulfonamide], the 50% inhibitory concentration (IC50) is less than 0.6 µM.
For the compound `COc1ccccc1S(=O)(=O)Nc1cc(OC2CCN(CCO)CC2)c2c(c1)C1(CCC1)C(=O)N2` [Compound-209, N-(7′-((1-(2-hydroxyethyl)piperidin-4-yl)oxy)-2′-oxospiro[cyclobutane-1,3′-indolin]-5′-yl)-2-methoxybenzenesulfonamide], the 50% inhibitory concentration (IC50) was less than 0.6 µM.
As to `CCN(C)CCOc1cc(NS(=O)(=O)c2ccccc2OC)cc2c1NC(=O)C21CCC1` [compound 196, N-(7′-(2-(ethyl(methyl)amino)ethoxy)-2′-oxospiro[cyclobutane-1,3′-indolin]-5′-yl)-2-methoxybenzenesulfonamide], the 50% inhibitory concentration (IC50) was less than 0.6 µM.
Regarding `CCOC(=O)N1CCC(Nc2cc(NS(=O)(=O)c3ccc(F)cc3F)cc3c2NC(=O)C32CCC2)CC1` [Compound 22, Ethyl 4-((5′-(2,4-difluorophenylsulfonamido)-2′-oxospiro [cyclobutane-1,3′-indolin]-7′-yl)amino)piperidine-1-carboxylate], the concentration for half-maximal inhibition (IC50) was 0.6 to 1 µM.
Regarding `COc1ccccc1S(=O)(=O)Nc1cc(OCc2cncc(F)c2)c2c(c1)C1(CCC1)C(=O)N2` [Compound 149, N-(7′-((5-fluoropyridin-3-yl)methoxy)-2′-oxospiro[cyclobutane-1,3′-indolin]-5′-yl)-2-methoxybenzenesulfonamide], the IC50 was less than 0.6 µM.
In the case of `COc1ccccc1S(=O)(=O)Nc1cc(OCc2cccnc2)c2c(c1)C1(CCC1)C(=O)N2` [Compound 157, 2-Methoxy-N-(2′-oxo-7′-(pyridin-3-ylmethoxy)spiro[cyclobutane-1,3′-indolin]-5′-yl)benzenesulfonamide], the IC50 is less than 0.6 µM.
Turning to `O=C1Nc2c(OC3CCNCC3F)cc(NS(=O)(=O)c3ccc(Cl)cc3F)cc2C12CCC2` (centres unmarked) [compound 198, 4-Chloro-2-fluoro-N-(7′-((3-fluoropiperidin-4-yl)oxy)-2′-oxospiro[cyclobutane-1,3′-indolin]-5′-yl)benzenesulfonamide], the IC50 is less than 0.6 µM.
`COc1ccccc1S(=O)(=O)Nc1cc(OC2CCS(=O)(=O)CC2)c2c(c1)C1(CCC1)C(=O)N2` [Compound 143, N-(7′-((1,1-dioxidotetrahydro-2H-thiopyran-4-yl)oxy)-2′-oxospiro[cyclobutane-1,3′-indolin]-5′-yl)-2-methoxybenzenesulfonamide]: the IC50 was less than 0.6 µM.
For the compound `O=C1Nc2c(-c3ccc(O)nc3)cc(NS(=O)(=O)c3ccc(F)cc3F)cc2C12CCC2` [Compound 99, 2,4-Difluoro-N-(7′-(6-hydroxypyridin-3-yl)-2′-oxospiro [cyclobutane-1,3′-indolin]-5′-yl)benzenesulfonamide], the IC50 lay within 0.6 to 1 µM.
The figure for `CN1CCC(NC(=O)c2cc(NS(=O)(=O)c3ccc(Cl)cc3F)cc3c2NC(=O)C32CCC2)CC1` [Compound-211, 5′-((4-Chloro-2-fluorophenyl)sulfonamido)-N-(1-methylpiperidin-4-yl)-2′-oxospiro[cyclobutane-1,3′-indoline]-7′-carboxamide] is 0.6 to 1 µM; for `COc1ccccc1S(=O)(=O)Nc1cc(C(C)c2ccccc2)c2c(c1)C1(CCC1)C(=O)N2` (centres unmarked) [Compound 113, 2-Methoxy-N-(2′-oxo-7′-(1-phenylethyl)spiro [cyclobutane-1,3′-indolin]-5′-yl)benzenesulfonamide] it is less than 0.6 µM.
On to `COc1ccccc1S(=O)(=O)Nc1cc(C(C)c2ccccn2)c2c(c1)C1(CCC1)C(=O)N2` (centres unmarked) [Compound 123, 2-Methoxy-N-(2′-oxo-7′-(1-(pyridin-2-yl)ethyl)spiro [cyclobutane-1,3′-indolin]-5′-yl)benzenesulfonamide], for which the IC50 is less than 0.6 µM.
In the case of `O=C1Nc2c(NC3CN4CCC3CC4)cc(NS(=O)(=O)c3ccc(F)cc3F)cc2C12CCC2` (centres unmarked) [Compound 19, 2,4-Difluoro-N-(2′-oxo-7′-(quinuclidin-3-ylamino)spiro[cyclobutane-1,3′-indolin]-5′-yl)benzenesulfonamide], the IC50 was less than 0.6 µM.
Consider `COc1ccc(S(=O)(=O)Nc2cc(OC3CCN(C)CC3)c3c(c2)C2(CCC2)C(=O)N3)c(OC)c1` [compound 187, 2,4-Dimethoxy-N-(7′-((1-methylpiperidin-4-yl)oxy)-2′-oxospiro[cyclobutane-1,3′-indolin]-5′-yl)benzenesulfonamide], for which the 50% inhibitory concentration (IC50) is less than 0.6 µM.
With `CCN1CCC(Oc2cc(NS(=O)(=O)c3ccccc3OC)cc3c2NC(=O)C32CCC2)CC1` [Compound 135, N-(7′-((1-ethylpiperidin-4-yl)oxy)-2′-oxospiro[cyclobutane-1,3′-indolin]-5′-yl)-2-methoxybenzenesulfonamide], the IC50 was less than 0.6 µM.
For `COc1cccc(F)c1S(=O)(=O)Nc1cc(OC2CCN(C)CC2)c2c(c1)C1(CCC1)C(=O)N2` [Compound-185, 2-Fluoro-6-methoxy-N-(7′-((1-methylpiperidin-4-yl)oxy)-2′-oxospiro[cyclobutane-1,3′-indolin]-5′-yl)benzenesulfonamide], the IC50 was less than 0.6 µM.
The figure for `CN1CCC(Nc2cc(NS(=O)(=O)c3ccc(F)cc3F)cc3c2NC(=O)C32CCC2)CC1` [Compound 17, 2,4-Difluoro-N-(7′-((1-methylpiperidin-4-yl)amino)-2′-oxospiro[cyclobutane-1,3′-indolin]-5′-yl)benzenesulfonamide] is less than 0.6 µM; for `O=C1Nc2c(OCc3ccc(F)cn3)cc(NS(=O)(=O)c3ccc(Cl)cc3F)cc2C12CCC2` [Compound 147, 4-Chloro-2-fluoro-N-(7′-((5-fluoropyridin-2-yl)methoxy)-2′-oxospiro[cyclobutane-1,3′-indolin]-5′-yl)benzenesulfonamide] it is less than 0.6 µM; for `COc1ccccc1S(=O)(=O)Nc1cc(C(=O)NC2CCNCC2)c2c(c1)C1(CCC1)C(=O)N2` [Compound 64, 5′-((2-methoxyphenyl)sulfonamido)-2′-oxo-N-(piperidin-4-yl)spiro[cyclobutane-1,3′-indoline]-7′-carboxamide] it is less than 0.6 µM.
As to `O=C1Nc2c(-c3ccc4c(c3)CNCC4)cc(NS(=O)(=O)c3ccc(F)cc3F)cc2C12CCC2` [Compound 88, 2,4-Difluoro-N-(2′-oxo-7′-(1,2,3,4-tetrahydroisoquinolin-7-yl)spiro-[cyclobutane-1,3′-indolin]-5′-yl)benzenesulfonamide], the half-maximal inhibitory concentration (IC50) was less than 0.6 µM.
In the case of `O=C(Nc1cc(C2CC2)c2c(c1)C1(CCC1)C(=O)N2)c1cccnc1N1CCOCC1` [Compound-223, N-(7′-cyclopropyl-2′oxospiro[cyclobutane-1,3′-indolin]-5′-yl)-2-morpholinonicotinamide], the IC50 was greater than 1 µM.
